Measurements as given in PMC8759731, “Design, synthesis, and evaluation of novel coumarin-dithiocarbamate derivatives (IDs) as anti-colorectal cancer agents” (Journal of Enzyme Inhibition and Medicinal Chemistry, 2021).
pIC50: −log10 of the molar value.

Columns and labels:
RKO cells = assay: MTS cell viability assay, RKO cells; format: cell-based; details: Homo sapiens, 72 h
Excerpt: (§1) Human colorectal cancer cell lines including RKO, SW620 and SW480 were purchased from Chinese Academy of Sciences, a typical cell library culture preservation committee (Shanghai, China). Normal human colon epithelial cell line NCM460 was purchased from ATCC (Washington, DC, USA). RPMI-1640 medium (12633020), foetal bovine serum (FBS, 26170043), penicillin-streptomycin (10378016) and phosphate buffered saline (PBS, 70011044) were purchased from Gibco (Eggenstein, Germany). 5-Fluorouracil (5-FU, E0201010050, purity ≥98%) was purchased from Energy Chemical (Shanghai, China). Dimethyl sulfoxide (DMSO, 41639) was obtained from Sigma-Aldrich (St. Louis, MO). 3–(4,5-dimethylthiazol-2-yl)-5–(3-carboxymethoxyphenyl)-2–(4-sulfophenyl)-2H-tetrazolium (MTS, G1111) was purchased from Promega (Madison, WI, USA). All cell lines were cultured in RPMI-1640 medium supplemented with 10% FBS, penicillin (100 units/mL) and streptomycin ([…]) at 37 °C in a humidified atmosphere containing 5% CO2.
(§2) Cell viability was measured via MTS assay. RKO, SW620, SW480 and NCM460 cells were seeded in 96-well plates at a density of 5000 cells per well for 24 h. After treatment with the test compounds at indicated concentration for another 48 h or 72 h at 37 °C, MTS solution was added to each well and incubated for another 30 min at 37 °C. Then, the absorbance at 490 nm was measured by a BioTek Synergy H4 microplate Reader (Vermont, USA). The IC50 values were calculated with Graphpad 7.0 software packages.

SW620 cells [1] = assay: MTS cell viability assay, SW620 cells; format: cell-based; details: Homo sapiens
Excerpt: as §1, §2

SW480 cells [2] = assay: MTS cell viability assay, SW480 cells; format: cell-based; details: Homo sapiens, 72 h
Excerpt: as §1, §2

[3] = MTS cell viability assay, NCM460 normal colon epithelial cells; format: cell-based, human; details: human, NCM460 normal colon epithelial cells, 10 μM
Excerpt: as §1, §2

NCM460 cells = assay: as above; format: cell-based, human; details: Homo sapiens, 48 h
Excerpt: as §1, §2

BRD4 (BD2) = target: T1, BRD4 (BD2) (Homo sapiens, UniProt O60885); assay: HTRF assay BRD4 (BD2); format: binding; details: read-out: Inhibitory rate at 10 μM, BRD4 (BD2)
T1 construct: purchased Reaction Biology Corp. RD-11-158
Procedure: In brief, compounds were serially diluted in Echo plate according to the plate map and DMSO’s final fraction is 0.1%. Then, transferring compounds and DMSO to 384-well assay plate by Echo. After that, 2× Protein and Peptide Mix was added to the assay plate and 2× Detection Mix was then added to assay plate and shook for 30 s. After incubating the plate at room temperature for 1.5 h, the HTRF signals (Excitation wavelength at 340 nm, Emission wavelength at 615 & 665 nm) was read on EnVision (PerkinElmer, UK). (+)-JQ1 (BPS Bioscience, Cat. No. 27402) was used as a positive control. BRD4-1 (RD-11–157) and BRD4-2 (RD-11–158) were purchased from Reaction Biology Corp. (PENN, USA). For Curve fitting, the inhibition values was calculated in Excel using Equation (1): Inhibition %=(Max-Signal)/(Max-Min)*100, and the IC50 values was calculated in XL-Fit using Equation (2): Y = Bottom + (Top-Bottom)/(1+(IC50/X)[…]), Y is %inhibition and X is compound concentration.

SW620 cells [4] = assay: Colony formation, SW620 cells; format: cell-based, human; details: 0 to 32 μM for 24 h, then 10 days
Procedure: SW620 and SW480 cells were seeded in 6-well plates (1000 cells per well) and cultured in RPMI-1640 medium containing 10% FBS overnight. After the cells treatment with DMSO or compound ID-11 (4, 8, 16, and 32 μM) for 24 h, the culture medium was replaced by fresh RPMI-1640 medium (containing 10% FBS) and continue culturing for another 10 days. Then the cells were washed with PBS and fixed with methanol for 15 min and stained with 0.1% crystal violet for another 30 min. Finally, the cells were washed with running water, air-dried and visualised by photographing.

SW620 cells [5] = assay: Cell cycle analysis (PI, flow cytometry), SW620 cells; format: cell-based, human; details: SW620, 16 μM, 24 h
Procedure: (§3) Cells were seeded in 6-well plates (40,000 cells per well) and cultured in RPMI-1640 medium containing 10% FBS overnight. Then the cells were exposed to DMSO or compound ID-11 (8 or 16 μM) for 24 h. After that, cells were collected, washed with cold PBS for twice and fixed in 75% ethanol overnight at 4 °C. Subsequently, ethanol was removed and suspended in PBS for twice, and then RNase A and propidium iodide (PI) (Multi Sciences, Hangzhou, China) was added and keep in the darkness for 30 min. Finally, the percentages of cells in different cell cycle phases were measured using a FACS Calibur flow cytometer (Bectone Dickinson, San Jose, CA, USA).

SW480 cells [6] = assay: Cell cycle analysis (PI, flow cytometry), SW480 cells; format: cell-based, human; details: SW480, 16 μM, 24 h
Procedure: as §3

SW620 cells [7] = assay: Annexin V-FITC/PI apoptosis analysis, SW620 cells; format: cell-based, human; details: SW620, 16 μM, 24 h
Procedure: (§4) Cell apoptosis was determined using Annexin V-FITC/PI Apoptosis Detection Kit (BD Biosciences, New Jersey, USA) in according with manufacturer's instruction. Briefly, cells were cultured in 6-well plates (40 000 cells per well) till reaching logarithmic growth phase and then treatment with DMSO or compound ID-11 (8 or 16 μM) for 24 h. Afterwards, the cells were harvested, washed with PBS for twice and stained with 100 μL of the mixture of Annexin V/FITC and PI in binding buffer (v/v, 5: 5: 100) in the darkness for 30 min. Another 200 μL binding buffer was added before detection. The apoptotic cells were then analysed by FACS Calibur flow cytometry immediately.

SW480 cells [8] = assay: Annexin V-FITC/PI apoptosis analysis, SW480 cells; format: cell-based, human; details: SW480, 16 μM, 24 h
Procedure: as §4

SW480 cells [9] = assay: Quantitative RT-PCR, SW480 cells; format: cell-based, human; details: SW480, 0 to 24 μM, 24 h, qRT-PCR
Procedure: Cells (50,000 cells per well) incubated in 6-well plates were treated with compound ID-11 for 24 h. After that, the total RNA was extracted using Total RNA Extraction Reagent (Invitrogen, USA) according to the manufacturer’s instructions and quantified with NanoDrop 2000 (Nanodrop, USA). Then the cDNA was synthesized from total RNA using High-Capacity cDNA Reverse Transcription Kit (Applied Biosystems, USA). The SYBR Green Master reagents (Applied Biosystems, USA) was used to determine the relative expression of mRNA level by quantitative real-time PCR (qRT-PCR). The primer sequences are shown below.

O=c1ccc2cc(CSC(=S)n3ccnc3)ccc2o1 [ID-11, (2-Oxo-2H-chromen-6-yl)methyl 1H-imidazole-1-carbodithioate]
viability at 10 µM (RKO cells; 10 μM): 29.4% | pIC50 (RKO cells): 5.19 | viability at 10 µM (SW620 cells [1]; SW-620, 10 μM, 72 h): 43.9% | pIC50 (SW620 cells [1]; SW-620, 72 h): 5.06 | viability at 10 µM (SW480 cells [2]; 10 μM): 20.2% | pIC50 (SW480 cells [2]): 5.45 | viability at 48 h, 10 µM [3]: 80.8% | pIC50 (NCM460 cells): 4.62 | inhibition at 10 µM (BRD4 (BD2)): 35.7% | colony formation (SW620 cells [4]): effectively inhibited | cell cycle distribution G2 (G2/M phase) (SW620 cells [5]): 33.13% | cell cycle distribution G2 (G2/M phase) (SW480 cells [6]): 21.03% | total apoptosis rate (SW620 cells [7]): 73.31% | total apoptosis rate (SW480 cells [8]): 23.23% | mRNA relative expression level of Bcl-2 (SW480 cells [9]): also decreased in a concentration dependent way | mRNA relative expression level of c-Myc (SW480 cells [9]): also decreased in a concentration dependent way | melting point: 139.1 to 140 °C
